For data set [1] the following is noted: in the reflected direction; known values; cited from earlier work.
The nature of data set [2]: Dry storage stability at ambient conditions (FT-IR). The data set is classed as physicochemical. To be noted: stored dry at ambient conditions; FT-IR fresh vs 3 months old. The text has this: FIG. 5 presents FT-IR spectra, showing fresh guanine monohydrate (top) vs 3 months old guanine monohydrate. Only small differences in the peak intensities are visible after 3 months. The typical signatures of structured water are still present (ν1, and ν3 stretching modes (broad peaks at 3420 and 3200 cm^−1) and ν2 bending mode (1596 cm^−1)).

Where “and” joins values, the source holds several entries; their conditions need not be identical. Equal values may be shown once.

Turning to `Nc1nc2nc[nH]c2c(=O)[nH]1` [Anhydrous guanine, guanine], the refractive index n in data set [1] is 1.83 and 1.81.

Regarding `Nc1nc2nc[nH]c2c(=O)[nH]1.O` [guanine monohydrate], in data set [2], the “stability, solid to solid transformation” value was “stable for at least several months”.

The values are drawn from patent US12473287B2, “Synthetic co-crystals of anhydrous guanine and process for preparing the same” (EcoCrystal Ltd., priority 2016, dated 2025).
